Assay results as given in PMC6727040, “Identification of a Novel Functional Corticotropin-Releasing Hormone (CRH2) in Chickens and Its Roles in Stimulating Pituitary TSHβ Expression and ACTH Secretion” (Frontiers in Endocrinology, 2019).
Entries after “also recorded” stand apart in the source; their conditions may differ. Ends that are not written are not given here. Peptide text beside a SMILES is read from it.

Key:
chicken CRHR1 (cCRHR1) = target: T1, chicken CRHR1 (cCRHR1) (Gallus gallus, UniProt Q90812); experiment: pGL3-CRE-luciferase reporter assay in CHO cells expressing cCRHR1; format: cell-based; conditions: CHO cells transiently expressing cCRHR1; peptide 10^−12-10^−6M, 6 h; luciferase as fold of untreated control; N = 3 replicates
T1 construct: expressed in transfected cells; host or cells: CHO cells, transient transfection (the control used the empty pcDNA3.1(+) vector)
T1 sequence (Q90812 29-420): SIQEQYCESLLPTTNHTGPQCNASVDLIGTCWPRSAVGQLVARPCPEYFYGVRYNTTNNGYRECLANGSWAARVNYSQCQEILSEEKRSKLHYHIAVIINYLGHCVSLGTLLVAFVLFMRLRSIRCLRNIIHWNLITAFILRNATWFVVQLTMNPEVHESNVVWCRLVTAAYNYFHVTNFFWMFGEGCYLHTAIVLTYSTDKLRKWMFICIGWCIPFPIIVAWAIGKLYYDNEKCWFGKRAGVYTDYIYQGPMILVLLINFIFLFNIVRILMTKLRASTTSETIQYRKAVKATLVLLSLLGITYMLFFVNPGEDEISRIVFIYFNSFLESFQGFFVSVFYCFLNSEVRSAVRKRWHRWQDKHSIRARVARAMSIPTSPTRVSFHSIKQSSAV
Experimental: CHO cells were cultured in Dulbecco's Modified Eagle's Medium (DMEM) supplemented with 10% (vol/vol) fetal bovine serum, 100 U/ml penicillin G, and 100 µg/ml streptomycin (HyClone) in a 100 mm dish (Corning) and incubated at 37°C with 5% CO2. As described in our previous study ([35]), the functionality of cCRH2 was examined in CHO cells transiently expressing CRHR1 or CRHR2 by the pGL3-CRE-luciferase reporter system, which was utilized to monitor receptor-mediated activation of the intracellular cAMP/PKA signaling pathway. The luciferase activities in each treatment group were expressed as relative fold increase as compared with that of respective control groups (i.e., without peptide treatment).

CRHR1 and CRHR2 = conditions: cited from earlier work
From the text: It has been well-documented that the roles of CRH-related peptides are mediated by two G protein-coupled receptors, namely CRH receptor 1 (CRHR1) and CRH receptor 2 (CRHR2), which share ~68% amino acid identity with each other ([6], [21], [23]). However, these neuropeptides have distinct preference for these two receptors.

chicken pituitary = conditions: cited from earlier work
From the text: (§1) The relatively high potency of cCRH2 in activating cCRHR2 led us to examine whether like cCRH, cCRH2 can stimulate TSH expression in the chicken pituitary (Figure 8). […] Our finding raises a new concept that apart from CRH, TRH and GCG-like peptide (GCGL) [which are re ...

pituitary [1] = conditions: cited from earlier work
From the text: However, UCN1 expression could not be detected in the hypothalamus and pituitary stalk ([10], [11]), and the selective receptors for UCN2 and UCN3 were not detected in the pituitary ([12]–[14]), hinting that the actions of ...

pituitary [2] = conditions: cited from earlier work; remark: listed apart in the source
From the text: as §1

CC[C@H](C)[C@H](NC(=O)[C@@H](NC(=O)[C@H](CCC(=O)O)NC(=O)[C@H](CCSC)NC(=O)[C@H](CC(C)C)NC(=O)[C@H](CCCCN)NC(=O)[C@H](CCCNC(=N)N)NC(=O)[C@H](CC(N)=O)NC(=O)[C@H](CO)NC(=O)[C@H](Cc1c[nH]cn1)NC(=O)[C@H](C)NC(=O)[C@H](CCC(N)=O)NC(=O)[C@H](CCC(N)=O)NC(=O)[C@H](C)NC(=O)[C@H](CC(C)C)NC(=O)[C@H](CCC(N)=O)NC(=O)[C@H](CCC(=O)O)NC(=O)[C@H](C)NC(=O)[C@H](CCCNC(=N)N)NC(=O)[C@H](C)NC(=O)[C@H](CCSC)NC(=O)[C@H](CCC(=O)O)NC(=O)[C@H](CC(C)C)NC(=O)[C@@H](NC(=O)[C@H](CCC(=O)O)NC(=O)[C@H](CCCNC(=N)N)NC(=O)[C@H](CC(C)C)NC(=O)[C@H](CC(C)C)NC(=O)[C@H](Cc1c[nH]cn1)NC(=O)[C@H](Cc1ccccc1)NC(=O)[C@@H](NC(=O)[C@H](CC(C)C)NC(=O)[C@H](CC(=O)O)NC(=O)[C@H](CC(C)C)NC(=O)[C@H](CO)NC(=O)[C@@H](NC(=O)[C@@H]1CCCN1C(=O)[C@@H]1CCCN1C(=O)[C@H](CCC(=O)O)NC(=O)[C@H](CCC(=O)O)NC(=O)[C@@H](N)CO)[C@@H](C)CC)[C@@H](C)O)C(C)C)[C@@H](C)CC)C(N)=O [cCRH]
EC50 (chicken CRHR1 (cCRHR1)): 0.0003 µM

urocortin III (FTLSLDVPTNIMNLLFNIAKAKNLRAQAAANAHLMAQI; ends and bridges not checked; UniProt Q969E3 120-157, looked up) [UCN3, CRH family peptide urocortin III]
affinity/selectivity for CRHR1 and CRHR2 (in words) (CRHR1 and CRHR2): highly selective for CRHR2

urocortin II (IVLSLDVPIGLLQILLEQARARAAREQATTNARILARVGHC; Urocortin-2; UniProt Q96RP3 72-112, looked up) [UCN2, CRH family peptide urocortin II]
affinity/selectivity for CRHR1 and CRHR2 (in words) (CRHR1 and CRHR2): highly selective for CRHR2

CC[C@H](C)[C@H](NC(=O)[C@H](CO)NC(=O)[C@H](CCC(N)=O)NC(=O)[C@H](CC(C)C)NC(=O)[C@H](CC(C)C)NC(=O)[C@H](CC(C)C)NC(=O)[C@H](CCCCN)NC(=O)[C@H](CC(N)=O)NC(=O)[C@H](CO)NC(=O)[C@H](CC(C)C)NC(=O)[C@H](C)NC(=O)[C@H](CCCCN)NC(=O)[C@H](CCC(N)=O)NC(=O)[C@H](C)NC(=O)[C@H](CC(C)C)NC(=O)[C@H](CCCNC(=N)N)NC(=O)[C@H](CCC(=O)O)NC(=O)[C@H](CCC(=O)O)NC(=O)[C@H](CCCNC(=N)N)NC(=O)[C@H](CO)NC(=O)[C@H](CCSC)NC(=O)[C@H](CCC(=O)O)NC(=O)[C@H](CC(C)C)NC(=O)[C@H](Cc1ccccc1)NC(=O)[C@H](CCC(=O)O)NC(=O)[C@H](CCCNC(=N)N)NC(=O)[C@H](CC(C)C)NC(=O)[C@H](CC(C)C)NC(=O)[C@H](Cc1c[nH]cn1)NC(=O)[C@H](Cc1ccccc1)NC(=O)[C@@H](NC(=O)[C@H](CC(C)C)NC(=O)[C@H](CC(=O)O)NC(=O)[C@H](CC(C)C)NC(=O)[C@H](CO)NC(=O)[C@H](CC(N)=O)NC(=O)[C@@H]1CCCN1C(=O)[C@H](CCCCN)NC(=O)CNC(=O)[C@@H](N)CCC(=O)O)[C@@H](C)O)C(N)=O [cCRH2] (H-EGKPNSLDLTFHLLREFLEMSREERLAQKALSNKLLLQSI-NH2)
EC50 (chicken CRHR1 (cCRHR1)): 0.0286 µM

GCG-like peptide [GCGL]
chicken pituitary TSH expression/secretion (in words) (chicken pituitary): reported to stimulate chicken pituitary TSH expression/secretion

urocortin I (DNPSLSIDLTFHLLRTLLELARTQSQRERAEQNRIIFDSV; ends and bridges not checked; UniProt P55089 83-122, looked up) [UCN1, CRH family peptide urocortin I]
ACTH-releasing activity in vitro (in words) (pituitary [1]; in vitro): potent ACTH-releasing activity in vitro
affinity/selectivity for CRHR1 and CRHR2 (in words) (CRHR1 and CRHR2): binds to them with similar affinities

corticotropin-releasing hormone [CRH]
ACTH secretion and synthesis from the pituitary (in words) (pituitary [1]): stimulates adrenocorticotropic hormone (ACTH) secretion and synthesis from the pituitary
pituitary TSH secretion and/or expression (in words) (pituitary [2]; non-mammalian vertebrates, including birds, amphibians and reptiles): elevate pituitary thyroid stimulating hormone (TSH) secretion and/or expression
pituitary TSH secretion and synthesis (in words) (pituitary [2]; some non-mammalian vertebrates including chickens): responsible for stimulating pituitary TSH secretion and synthesis
activation of both CRH receptors in chickens (in words) (CRHR1 and CRHR2): equipotent activation of both receptors; also recorded: equipotent in activating both receptors
affinity for CRHR1 versus CRHR2 (in words) (CRHR1 and CRHR2; mammals, Xenopus and zebrafish): higher affinity to CRHR1 than to CRHR2
